Tests used:
[1] = HFA propellant and ethanol, conventional aluminum or plastic coated glass cans; 40° C., 75% relative humidity, one month (WO 99/65460); cited from earlier work
[2] = Stability of acidified TA 2005-HFA 134a solutions in cans coated with a fluorocarbon polymer, stored upright at 50° C.; type: physicochemical
Procedure: Comparative Example 1 (corresponding to Example 7 of WO 01/89480). Stability of acidified TA 2005-HFA 134a solutions in cans coated with a fluorocarbon polymer.
(§1) A solution of TA 2005 (3.5 μg/50 μl) was prepared by dissolving 0.84 mg of the active ingredient in HFA 134a containing 12% w/w ethanol and 1.0% w/w of isopropyl myristate. pMDI coated cans containing 1.0, 1.4, and 1.8 μl of 0.08 M hydrochloric acid (corresponding respectively to an apparent pH of about 4.8, 3.2, and 2.9) were set down on storage, upright at 50° C., and samples taken for analysis of TA 2005 contents at appropriate intervals.
Each value is expressed as percent nominal drug concentration.

[3] = Stability of TA 2005 + budesonide HFA 134a compositions with phosphoric acid, 40° C. and 75% relative humidity; type: physicochemical; details: TA 2005 1 μg + budesonide 200 μg/actuation, phosphoric acid 85% 0.0032 or 0.0064% w/w, 0.15% w/w water
Procedure: The two compositions containing TA 2005 and budesonide as active ingredients and two different concentrations of phosphoric acid as shown in Table 4 were prepared.
Volume of the valve: 63 μl; strength: TA 2005 1 μg+budesonide 200 μg/actuation; no. of actuations: 120 (34 overfilling doses).
The two active ingredients in the compositions were stable after three months storage at 40° C. and 75% relative humidity, giving residual percent amounts of at least 95% TA 2005 and about 100% of Budesonide.

[4] = Stability study of TA 2005 HFA 134a formulation with 15.2M phosphoric acid, upright and inverted cans at 40° C. and 75% relative humidity; type: physicochemical; details: TA 2005 1 μg/63 μl, 15% w/w ethanol, phosphoric acid 15.2M 0.001 to 0.0027% w/w
Procedure: The formulation of Table 3 (120 actuations canister, overage of 30 actuations) was filled in aluminum canisters having the internal surface coated with teflon and fitted with commercial valves having a 63 μl metering chamber. A stability study was carried out by storing the formulation in upright and inverted cans at 40° C. and 75% relative humidity.

[5] = Stability study of TA 2005 HFA 134a formulations with 0.1M hydrochloric acid, upright cans at 40° C. and 75% relative humidity; type: physicochemical; details: TA 2005 1 μg/63 μl, 15% w/w ethanol
Procedure: Two aluminum canisters having the internal surface coated with teflon and fitted with commercial valves having a 63 μl metering chamber were filled with the following formulations shown in Table 2. A stability study was carried out by storing the formulations in upright cans at 40° C. and 75% relative humidity.

[6] = 4 μg per actuation, HCl stabilized, stored upright at 5° C., after nine months (WO 03/074025); cited from earlier work
[7] = Apparent pH (acidity function pH') of acidified TA 2005 solutions; type: physicochemical; details: TA 2005 3.5 μg/50 μl in HFA 134a
Source text: The attribution ‘apparent’ is used as pH is indeed characteristic of aqueous liquids where water is the dominant component (Mole Fraction >0.95). […] Although the Nernst equation with respect to EMF applies and the pH-meter glass electrode system will generate a variable milli-volt output according to proton concentration and vehicle polarity, the “pH” meter reading is not a true pH value. The meter reading represents an apparent pH or acidity function (pH′).
Rather concentrated, i.e., more than about 10 M, preferably more than about 12 M, and most preferably about 15 M phosphoric acid is used to adjust the apparent pH. In the examples that follow 85%, i.e., 15.2M phosphoric acid has been used. The amount of acid to be added to reach the desired apparent pH will be pre-determined in the model vehicle reported before
1.0 M hydrochloric acid was added incrementally to 50 ml of HFA 43-10MEE (Vertrel XF) containing 20% w/w ethanol and the pH′ was measured after each aliquot of acid.
as §1

| Compound | loss of drug [1] | TA 2005 content, percent nominal drug concentration, 50° C.; 22 days upright ([2]; 1.0 μl 0.08M HCl per can) [%] | TA 2005 content, percent nominal drug concentration, 50° C.; 83 days upright ([2]; 1.0 μl 0.08M HCl per can) [%] | TA 2005 content, percent nominal drug concentration, Initial ([2]; 1.0 μl 0.08M HCl per can, TA 2005 3.5 μg/50 μl, 12% w/w ethanol, 1.0% w/w isopropyl myristate) [%] | TA 2005 content, percent nominal drug concentration, 50° C.; 22 days upright ([2]; 1.4 μl 0.08M HCl per can) [%] | TA 2005 content, percent nominal drug concentration, 50° C.; 83 days upright ([2]; 1.4 μl 0.08M HCl per can) [%] | TA 2005 content, percent nominal drug concentration, Initial ([2]; 1.4 μl 0.08M HCl per can) [%] | TA 2005 content, percent nominal drug concentration, 50° C.; 22 days upright ([2]; 1.8 μl 0.08M HCl per can) [%] | TA 2005 content, percent nominal drug concentration, 50° C.; 83 days upright ([2]; 1.8 μl 0.08M HCl per can) [%] | TA 2005 content, percent nominal drug concentration, Initial ([2]; 1.8 μl 0.08M HCl per can) [%] | residual percent amount after three months storage [3] | residual percent amount of TA 2005 after three months of storage [4] | percent amount of TA 2005 after three months of storage ([5]; 0.1M HCl 0.018% w/w) [%] | percent amount of TA 2005 after three months of storage ([5]; 0.1M HCl 0.027% w/w) [%] | TA 2005 assay [6] | apparent pH ([7]; 1.0 μl of 0.08 M hydrochloric acid per can) | apparent pH ([7]; 1.4 μl of 0.08 M hydrochloric acid per can) | apparent pH ([7]; 1.8 μl of 0.08 M hydrochloric acid per can) |
| --- | --- | --- | --- | --- | --- | --- | --- | --- | --- | --- | --- | --- | --- | --- | --- | --- | --- | --- |
| COc1ccc(C[C@@H](C)NC[C@H](O)c2ccc(O)c(NC=O)c2)cc1.COc1ccc(C[C@@H](C)NC[C@H](O)c2ccc(O)c(NC=O)c2)cc1.O=C(O)/C=C/C(=O)O [formoterol fumarate] | about 10% | – | – | – | – | – | – | – | – | – | – | – | – | – | – | – | – | – |
| COc1ccc(C[C@@H](C)NC[C@H](O)c2ccc(O)c3[nH]c(=O)ccc23)cc1.Cl [TA 2005, 8-hydroxy-5-[(1R)-1-hydroxy-2-[[(1R)-2-(4-methoxyphenyl)-1-methylethyl]amino]ethyl]-2(1H)-quinolinone hydrochloride] | – | 98.3 | 99.4 | 100.0 | 98.2 | 98.8 | 100.0 | 90.2 | 88.1 | 100.0 | at least 95% | up to 98% | 73 | 77 | higher than 95% | about 4.8 | ~3.2 | ~2.9 |
